How the values were obtained:
Ima5 = biological target: T1, Ima5 (Saccharomyces cerevisiae, UniProt P40884); experiment: glucose release, crude extract of IMA5-overexpressing yeast; assay type: biochemical; details: relative to ima5 deletion mutant
T1 construct: crude extract of yeast overexpressing IMA5, compared with ima5 deletion mutant
T1 sequence (P40884 1-581): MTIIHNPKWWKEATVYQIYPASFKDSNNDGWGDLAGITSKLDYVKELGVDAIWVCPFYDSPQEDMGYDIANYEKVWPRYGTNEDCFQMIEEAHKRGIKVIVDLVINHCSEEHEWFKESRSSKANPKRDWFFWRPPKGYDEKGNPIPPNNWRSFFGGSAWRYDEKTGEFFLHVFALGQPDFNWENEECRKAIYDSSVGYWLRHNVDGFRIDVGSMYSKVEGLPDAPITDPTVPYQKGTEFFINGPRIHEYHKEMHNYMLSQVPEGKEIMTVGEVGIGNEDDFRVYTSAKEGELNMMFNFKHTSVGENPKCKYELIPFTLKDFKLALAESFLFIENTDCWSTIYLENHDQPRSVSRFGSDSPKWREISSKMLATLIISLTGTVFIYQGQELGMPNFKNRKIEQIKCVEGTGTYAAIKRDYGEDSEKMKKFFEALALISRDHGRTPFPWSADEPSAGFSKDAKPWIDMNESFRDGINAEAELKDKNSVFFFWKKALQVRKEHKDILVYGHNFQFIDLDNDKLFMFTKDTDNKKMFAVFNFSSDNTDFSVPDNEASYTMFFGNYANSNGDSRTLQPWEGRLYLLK

K. lactis [GI: 50312678] = biological target: T2, K. lactis [GI: 50312678] (Kluyveromyces lactis, UniProt Q6CSK8); experiment: glucose oxidase/peroxidase coupled glucose release; assay type: biochemical; details: Michaelis-Menten or Hill fit
T2 construct: gene KLLA0_B00242g
T2 sequence (Q6CSK8 entry or part of it): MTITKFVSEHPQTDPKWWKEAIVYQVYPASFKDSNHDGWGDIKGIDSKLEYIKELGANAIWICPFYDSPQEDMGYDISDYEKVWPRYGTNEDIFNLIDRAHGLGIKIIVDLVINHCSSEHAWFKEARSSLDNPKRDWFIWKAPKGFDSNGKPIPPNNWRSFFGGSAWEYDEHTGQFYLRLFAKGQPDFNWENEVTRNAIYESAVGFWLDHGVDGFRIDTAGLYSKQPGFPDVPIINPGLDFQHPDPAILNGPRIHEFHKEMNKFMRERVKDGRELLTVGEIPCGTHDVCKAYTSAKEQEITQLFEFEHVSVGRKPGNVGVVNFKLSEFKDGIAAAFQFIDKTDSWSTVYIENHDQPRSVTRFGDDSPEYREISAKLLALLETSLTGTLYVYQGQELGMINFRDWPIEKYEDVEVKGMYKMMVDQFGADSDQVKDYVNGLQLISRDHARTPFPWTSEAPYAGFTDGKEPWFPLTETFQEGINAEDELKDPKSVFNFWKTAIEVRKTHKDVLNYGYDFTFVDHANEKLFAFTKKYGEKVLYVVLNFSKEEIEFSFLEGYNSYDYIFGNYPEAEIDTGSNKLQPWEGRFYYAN

[1] = substrate: CO[C@H]1O[C@H](CO)[C@@H](O)[C@H](O)[C@H]1O; experiment: glucose oxidase/peroxidase coupled glucose release; assay type: biochemical, Saccharomyces cerevisiae; details: Michaelis-Menten or Hill fit

Molecule: OC[C@H]1O[C@H](OC[C@H]2OC(O)[C@H](O)[C@@H](O)[C@@H]2O)[C@H](O)[C@@H](O)[C@@H]1O (stereo partly shown) [isomaltose]
- relative activity (Ima5): relative enzyme activity in crude extracts derived from a yeast strain overexpressing IMA5

Molecule: OC[C@H]1O[C@H](O[C@H]2[C@H](O)[C@@H](O)C(O)O[C@@H]2CO)[C@H](O)[C@@H](O)[C@@H]1O (stereo partly shown) [maltose]
- Km (K. lactis [GI: 50312678]): one of the paralogs retains the broad specificity of ancMalS

B1: Ima1 (Saccharomyces cerevisiae S288C) (protein)
chain: TISSAHPETEPKWWKEATFYQIYPASFKDSNDDGWGDMKGIASKLEYIKELGADAIWISPFYDSPQDDMGYDIANYEKVWPTYGTNEDCFALIEKTHKLGMKFITDLVINHCSSEHEWFKESRSSKTNPKRDWFFWRPPKGYDAEGKPIPPNNWKSYFGGSAWTFDEKTQEFYLRLFCSTQPDLNWENEDCRKAIYESAVGYWLDHGVDGFRIDVGSLYSKVVGLPDAPVVDKNSTWQSSDPYTLNGPRIHEFHQEMNQFIRNRVKDGREIMTVGEMQHASDETKRLYTSASRHELSELFNFSHTDVGTSPLFRYNLVPFELKDWKIALAELFRYINGTDCWSTIYLENHDQPRSITRFGDDSPKNRVISGKLLSVLLSALTGTLYVYQGQELGQINFKNWPVEKYEDVEIRNNYNAIKEEHGENSEEMKKFLEAIALISRDHARTPMQWSREEPNAGFSGPSAKPWFYLNDSFREGINVEDEIKDPNSVLNFWKEALKFRKAHKDITVYGYDFEFIDLDNKKLFSFTKKYNNKTLFAALNFSSDATDFKIPNDDSSFKLEFGNYPKKEVDASSRTLKPWEGRIYISE
notes: purified present-day enzyme; expression details in Text S1
- Km [1]: 16.40 ± 0.73 mM
- kcat [1]: 0.2688 ± 0.00167 s⁻¹

— article PMC3519909 (PLoS Biology, 2012)
